Some test systems named below: NCI-H226; 786-0; CCRF-CEM; NCI/ADR-RES; DU-145; SK-OV-3; T47D; SR; CAKI-1; SF-268; MDA-MB-231; KM12; HT-29; RXF 393; HOP-62; BT-549; OVCAR-3; NCI-H23; HCC 2998.
What all share (assay): NCI tumour cell line growth inhibition, 48 h

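These data come from cells grown in 96-well plates and exposed to compound for 48 hours at five concentrations. Abbreviation: GI50, concentration required for 50% inhibition of growth.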 Activity calls are given as the source filed them. No stated cut-off is given here; in the data, active = GI50 up to about 1.1 µM and inactive = higher.

For `CCOC(=O)c1c(Br)c(-c2ccc(Br)cc2)c(Br)n1C`, the GI50 was 15.5 µM (inactive) with NCI-H226; 20.5 µM (inactive) in the assay on 786-0; 14.7 µM (inactive) with CCRF-CEM; 5.38 µM (inactive) in the assay with NCI/ADR-RES; 31.1 µM (inactive) in the assay with DU-145; 32.8 µM (inactive) with SK-OV-3. In addition, the GI50 is 10.5 µM (inactive) in the assay on T47D; 3.22 µM (inactive) in the assay on SR; 17.1 µM (inactive) in the assay with CAKI-1; 19.7 µM (inactive) in the assay on SF-268; 13.6 µM (inactive) with MDA-MB-231; 10.2 µM (inactive) in the assay with KM12. Moreover, the GI50 was 11.7 µM (inactive) in the assay on HT-29; 11.2 µM (inactive) in the assay with RXF 393; 19.9 µM (inactive) in the assay on HOP-62; 14.5 µM (inactive) with BT-549; 14.7 µM (inactive) with OVCAR-3; 22.7 µM (inactive) in the assay on NCI-H23. The GI50 in the assay on HCC 2998 was 19.5 µM (inactive).
In the case of `COC(=O)c1c(OC(C)=O)ccc2c1c1c(OC(C)=O)c3ccccc3c(OC(C)=O)c1n2Cc1cc(OC)cc(OC)c1`, the GI50 is 31.3 µM (inactive) with NCI-H226; 36.5 µM (inactive) in the assay with 786-0; 6.76 µM (inactive) in the assay with CCRF-CEM; 5.78 µM (inactive) in the assay with NCI/ADR-RES; 38.5 µM (inactive) in the assay on DU-145; 9.68 µM (inactive) in the assay on SK-OV-3. For the same compound, the GI50 with T47D was 3.82 µM (inactive); with SR it was 4.44 µM (inactive); in the assay on CAKI-1, 32.1 µM (inactive); in the assay with SF-268 it was 5.09 µM (inactive); in the assay on MDA-MB-231 it was 16.3 µM (inactive); in the assay with KM12 it was 2.79 µM (inactive). The GI50 in the assay with HT-29 was 47.9 µM (inactive); in the assay with RXF 393, 8.81 µM (inactive); in the assay on HOP-62, 8.83 µM (inactive); in the assay with BT-549, 6.82 µM (inactive); in the assay on OVCAR-3, 4.51 µM (inactive); in the assay with NCI-H23, 9.91 µM (inactive). Also, in the assay on HCC 2998, the GI50 is 2.56 µM (inactive).
Take `COc1ccc2c(c1)-c1nc(=S)n(CCN(C)C)c3ccc([N+](=O)[O-])c(c13)N2`: the GI50 in the assay on NCI-H226 was 0.973 µM (active); in the assay with 786-0, 0.462 µM (active); in the assay with CCRF-CEM, 1.09 µM (active); with NCI/ADR-RES it was 1.09 µM (active); in the assay with DU-145, 0.923 µM (active); in the assay with SK-OV-3 it was 0.57 µM (active). For the same compound, the GI50 is 4.81 µM (inactive) in the assay on T47D; 0.419 µM (active) in the assay on SR; 1.49 µM (inactive) in the assay with CAKI-1; 0.671 µM (active) with SF-268; 1.23 µM (inactive) with MDA-MB-231; 0.971 µM (active) in the assay with KM12. Also, the GI50 was 0.498 µM (active) in the assay with HT-29; 1.1 µM (active) in the assay with RXF 393; 0.594 µM (active) in the assay with HOP-62; 10.3 µM (inactive) in the assay on BT-549; 1.23 µM (inactive) with OVCAR-3; 1.16 µM (inactive) in the assay on NCI-H23. The GI50 in the assay on HCC 2998 is 0.809 µM (active).
Regarding `CCC(=O)c1ccc2[nH]c3c(C)c4c(O)cc(C)nc4c(C)c3c2c1`, the GI50 with NCI-H226, in the assay with 786-0, with CCRF-CEM, in the assay with NCI/ADR-RES, in the assay on DU-145 and in the assay on T47D was > 100 µM (inactive) each time. The GI50 was 40.6 µM (inactive) with SR; > 100 µM (inactive) with CAKI-1; > 100 µM (inactive) in the assay on SF-268; 40.8 µM (inactive) in the assay with MDA-MB-231; > 100 µM (inactive) in the assay on KM12; > 100 µM (inactive) with HT-29. For the same compound, the GI50 with RXF 393 was > 100 µM (inactive); in the assay with HOP-62, 92 µM (inactive); in the assay with BT-549, > 100 µM (inactive); in the assay with NCI-H23, > 100 µM (inactive); in the assay on HCC 2998 it was > 100 µM (inactive).
Turning to `Cc1cccc(-c2nc(-c3cnccn3)n(Cc3ccccc3)n2)c1`, the GI50 in the assay with 786-0 was 52.7 µM (inactive); in the assay with CCRF-CEM, > 100 µM (inactive); in the assay with NCI/ADR-RES, > 100 µM (inactive); in the assay with DU-145, > 100 µM (inactive); with SK-OV-3, 65.6 µM (inactive); in the assay with T47D it was 90.6 µM (inactive). The GI50 with SR was > 100 µM (inactive); with SF-268, > 100 µM (inactive); in the assay with MDA-MB-231, > 100 µM (inactive); with KM12, > 100 µM (inactive); in the assay with HT-29 it was > 100 µM (inactive); with RXF 393, 29.6 µM (inactive). Also, the GI50 was 35.1 µM (inactive) with HOP-62; > 100 µM (inactive) with BT-549; > 100 µM (inactive) in the assay with OVCAR-3; > 100 µM (inactive) in the assay with NCI-H23; > 100 µM (inactive) in the assay with HCC 2998.
Turning to `C/C(=N\NC(N)=O)C(CN(C)C)C(c1ccccc1)c1c(O)c2ccccc2oc1=O` (stereo unspecified), the GI50 in the assay with NCI-H226 is > 100 µM (inactive); in the assay with 786-0, > 100 µM (inactive); with CCRF-CEM it was 90.8 µM (inactive); with NCI/ADR-RES, > 100 µM (inactive); with DU-145, > 100 µM (inactive); in the assay with T47D, > 100 µM (inactive). Further, the GI50 in the assay with SR, with CAKI-1, in the assay with SF-268, in the assay on MDA-MB-231, in the assay on KM12 and in the assay on HT-29 was > 100 µM (inactive) each time. In addition, the GI50 in the assay on RXF 393 is 88.7 µM (inactive); in the assay with HOP-62 it was > 100 µM (inactive); with BT-549, > 100 µM (inactive); with OVCAR-3, > 100 µM (inactive); in the assay on NCI-H23, > 100 µM (inactive); in the assay with HCC 2998, > 100 µM (inactive).
Take `CC(=O)Nc1ccc(COC(O)CN2CCCCC2)cc1[N+](=O)[O-]` (stereo unspecified): the GI50 with NCI-H226, in the assay with 786-0, in the assay with CCRF-CEM, in the assay with NCI/ADR-RES, with DU-145 and in the assay on T47D was > 100 µM (inactive) throughout. The GI50 in the assay on SR, with CAKI-1, in the assay on SF-268, in the assay on MDA-MB-231, in the assay on KM12 and in the assay on HT-29 was > 100 µM (inactive) throughout. For the same compound, the GI50 in the assay on RXF 393, in the assay on BT-549, in the assay on OVCAR-3, in the assay on NCI-H23 and in the assay with HCC 2998 was > 100 µM (inactive) each time.
Regarding `COc1c2c(cc3oc(C)cc(=O)c13)OC(=N)C(C(N)=O)C2CC(=O)c1ccc(N)cc1` (stereo unspecified), the GI50 in the assay with NCI-H226, with 786-0, in the assay on CCRF-CEM, in the assay on NCI/ADR-RES, with DU-145 and with T47D was > 100 µM (inactive) in each case. Moreover, the GI50 in the assay on SR, in the assay on CAKI-1, in the assay with SF-268, in the assay with MDA-MB-231, with KM12 and in the assay with RXF 393 was > 100 µM (inactive) each time. Besides, the GI50 with BT-549, in the assay on OVCAR-3 and in the assay on HCC 2998 was > 100 µM (inactive) each time.
